Test results taken from patent US11987648B2, “Cyclohexapeptides as selective somatostatin SST5 receptor agonists” (Heptares Therapeutics Limited, priority 2018, dated 2024).
*1 amine or outer side, *2 acyl side, *3 side chain or, on linkers, in order; H or OH if unused. Where a SMILES comes first, the peptide text is derived from it. Side-chain parts run from the residue outwards. [ ]: non-standard residue; d: D form. The star is where a group is joined. Ala(piperidin-4-yl) = O=C([C@H](CC1CCN([*:3])CC1)N[*:1])[*:2]; X2 = O=C([C@@H]1C[C@@H](Oc2ccncc2)CN1[*:1])[*:2]; Ala(piperazin-1-yl) = N[C@@H](CN1CCNCC1)C(=O)O; X5 = CN([C@@H](CC1CCNCC1)C(=O)[*:2])[*:1]; Phe(4-Cl) = N[C@@H](Cc1ccc(Cl)cc1)C(=O)O; Morpholine(3S-CO) = O=C(O)[C@@H]1COCCN1; Ethylenediamine = C(CN[*:2])N[*:1]; d(hPhe) = N[C@H](CCc1ccccc1)C(=O)O; Hyp = O=C(O)[C@@H]1C[C@@H](O)CN1; hPhe = N[C@@H](CCc1ccccc1)C(=O)O; 3Pal = N[C@@H](Cc1cccnc1)C(=O)O; Cyclohexylmethyl = C1CCC(C*)CC1; Tic = O=C(O)[C@@H]1Cc2ccccc2CN1; Phg = N[C@H](C(=O)O)c1ccccc1; CO = O=C([*:1])[*:2]; Bn = c1ccc(C*)cc1

What was measured:
SST5 = SST5 (Homo sapiens, UniProt P35346); assay: Hit Hunter cAMP XS+ assay, SST5 activation via Gi (reduction of forskolin-stimulated cAMP); type: cell-based; conditions: for Emax: read-out: SST5 (EMax); for EC50: reduction of forskolin-stimulated cAMP, 4-parameter logistic fit, read-out: SST5 pEC50 (converted); for SST5/2 Selectivity: selectivity for SST5 over SST2
Procedure: (§1) A Hit Hunter® cAMP XS+ assay was used to monitor activation of the SST2 and SST5 via the Gi G protein. Cells were pre-stimulated with forskolin to elicit a cAMP response and the potency and efficacy of somatostatin agonists to reduce cAMP was measured. Briefly cells (10,000 cells/well) were incubated (37° C.; 30 min) with compound ([…]) in media (2:1 HBSS/11 mM Hepes: cAMP XS+Ab reagent) in the presence of EC80 forskolin ([…] and 15 μM SST5). Signal was detected through incubation with 20 μL cAMP XS+ED/CL lysis cocktail ([…]; RT) followed by incubation with […] cAMP XS+EA reagent (180 min; RT). Microplates were read with a PerkinElmer Envision™ instrument for chemiluminescent signal detection.

SST2 = SST2 (Homo sapiens, UniProt P30874); assay: Hit Hunter cAMP XS+ assay, SST2 activation via Gi (reduction of forskolin-stimulated cAMP); type: cell-based; conditions: for Emax: read-out: SST2 (EMax); for EC50: reduction of forskolin-stimulated cAMP, 4-parameter logistic fit, read-out: SST2 pEC50 (converted)
Procedure: as §1

SST2, sequence (P30874 whole entry): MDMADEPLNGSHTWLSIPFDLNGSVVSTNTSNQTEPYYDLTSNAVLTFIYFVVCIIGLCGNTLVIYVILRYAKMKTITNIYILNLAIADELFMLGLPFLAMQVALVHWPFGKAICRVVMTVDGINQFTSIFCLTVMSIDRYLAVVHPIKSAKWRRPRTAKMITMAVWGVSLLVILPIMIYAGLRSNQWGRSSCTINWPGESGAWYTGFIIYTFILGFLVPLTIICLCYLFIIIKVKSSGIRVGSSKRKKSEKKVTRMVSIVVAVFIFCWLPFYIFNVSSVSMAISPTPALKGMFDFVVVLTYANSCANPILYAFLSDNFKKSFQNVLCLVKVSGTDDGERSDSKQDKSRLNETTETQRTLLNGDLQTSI
SST5, sequence (P35346 whole entry): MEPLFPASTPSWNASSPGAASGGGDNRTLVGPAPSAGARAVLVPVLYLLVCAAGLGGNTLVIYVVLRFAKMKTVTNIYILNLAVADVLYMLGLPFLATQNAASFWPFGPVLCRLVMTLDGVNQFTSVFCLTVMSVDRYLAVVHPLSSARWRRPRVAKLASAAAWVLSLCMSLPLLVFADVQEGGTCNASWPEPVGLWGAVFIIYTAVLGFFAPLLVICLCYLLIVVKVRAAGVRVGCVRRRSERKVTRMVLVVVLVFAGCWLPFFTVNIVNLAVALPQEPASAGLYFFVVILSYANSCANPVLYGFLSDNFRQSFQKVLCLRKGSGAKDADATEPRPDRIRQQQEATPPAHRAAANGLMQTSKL

Row | Emax (SST5) [%] | EC50 (SST5) [nM] | SST5/2 Selectivity (SST5) | Emax (SST2) [%] | EC50 (SST2) [nM] | SMILES
1 | 96.7 | 0.0794 | 1876.8 | 99.6 | 158 | NCCNC(=O)O[C@@H]1C[C@H]2C(=O)N[C@@H](CCc3ccccc3)C(=O)N[C@H](Cc3c[nH]c4ccccc34)C(=O)N[C@@H](CN3CCNCC3)C(=O)N[C@@H](Cc3ccc(OCc4ccccc4)cc3)C(=O)N[C@@H](Cc3cccnc3)C(=O)N2C1 [Example 14] (cyclo([3Pal][Hyp]([CO-Ethylenediamine])[hPhe][dW][Ala(piperazin-1-yl)]Y(Bn)))
2 | 101 | 20 | 531.3 | 55.5 | > 10000 | NCCNC(=O)O[C@@H]1C[C@H]2C(=O)N[C@H](CCc3ccccc3)C(=O)N[C@H](Cc3c[nH]c4ccccc34)C(=O)N[C@@H](CC3CCNCC3)C(=O)N[C@@H](Cc3ccc(OCc4ccccc4)cc3)C(=O)N[C@@H](Cc3cccnc3)C(=O)N2C1 [Example 15] (cyclo([3Pal][Hyp]([CO-Ethylenediamine])[d(hPhe)][dW][Ala(piperidin-4-yl)]Y(Bn)))
3 | 100 | 3.98 | 2729.5 | 79.5 | > 10000 | NCCNC(=O)O[C@@H]1C[C@H]2C(=O)N[C@H](CCc3ccccc3)C(=O)N[C@H](Cc3c[nH]c4ccccc34)C(=O)N[C@@H](CN3CCNCC3)C(=O)N[C@@H](Cc3ccc(OCc4ccccc4)cc3)C(=O)N[C@@H](Cc3cccnc3)C(=O)N2C1 [Example 16] (cyclo([3Pal][Hyp]([CO-Ethylenediamine])[d(hPhe)][dW][Ala(piperazin-1-yl)]Y(Bn)))
4 | 104 | 0.501 | 789.4 | 97.3 | 398 | NCCNC(=O)O[C@@H]1C[C@H]2C(=O)N[C@@H](CCc3ccccc3)C(=O)N[C@H](Cc3c[nH]c4ccccc34)C(=O)N[C@@H](CC3CCNCC3)C(=O)N[C@@H](Cc3ccc(OCc4ccccc4)cc3)C(=O)N3Cc4ccccc4C[C@H]3C(=O)N2C1 [Example 17] (cyclo([Hyp]([CO-Ethylenediamine])[hPhe][dW][Ala(piperidin-4-yl)]Y(Bn)[Tic]))
5 | 99.8 | 20 | 5.5 | 75.5 | 100 | NCCNC(=O)O[C@@H]1C[C@H]2C(=O)N[C@@H](CCc3ccccc3)C(=O)N[C@@H](Cc3c[nH]c4ccccc34)C(=O)N[C@@H](CC3CCNCC3)C(=O)N[C@@H](Cc3ccc(OCc4ccccc4)cc3)C(=O)N3Cc4ccccc4C[C@H]3C(=O)N2C1 [Example 19] (cyclo([Hyp]([CO-Ethylenediamine])[hPhe]W[Ala(piperidin-4-yl)]Y(Bn)[Tic]))
6 | 99.6 | 6.31 | 418.4 | 98 | 3160 | O=C1N[C@@H](Cc2cccnc2)C(=O)N2C[C@H](Oc3ccncc3)C[C@H]2C(=O)N[C@H](CCc2ccccc2)C(=O)N[C@H](Cc2c[nH]c3ccccc23)C(=O)N[C@@H](CC2CCNCC2)C(=O)N[C@H]1Cc1ccc(OCc2ccccc2)cc1 [Example 20] (cyclo([3Pal][X2][d(hPhe)][dW][Ala(piperidin-4-yl)]Y(Bn)))
7 | 102 | 0.501 | 142.6 | 100 | 79.4 | O=C1N[C@@H](Cc2cccnc2)C(=O)N2C[C@H](Oc3ccncc3)C[C@H]2C(=O)N[C@@H](CCc2ccccc2)C(=O)N[C@H](Cc2c[nH]c3ccccc23)C(=O)N[C@@H](CC2CCNCC2)C(=O)N[C@H]1Cc1ccc(OCc2ccccc2)cc1 [Example 22] (cyclo([3Pal][X2][hPhe][dW][Ala(piperidin-4-yl)]Y(Bn)))
8 | 101 | 3.98 | 148.7 | 96.6 | 631 | O=C1N[C@@H](Cc2ccc(OCc3ccccc3)cc2)C(=O)N[C@@H](Cc2cccnc2)C(=O)N2C[C@H](Oc3ccncc3)C[C@H]2C(=O)N[C@@H](CCc2ccccc2)C(=O)N[C@@H](Cc2c[nH]c3ccccc23)C(=O)N[C@H]1CC1CCNCC1 [Example 23] (cyclo([3Pal][X2][hPhe]W[Ala(piperidin-4-yl)]Y(Bn)))
9 | 102 | 100 | 110.6 | 46.8 | > 10000 | O=C1N[C@@H](Cc2ccc(OCc3ccccc3)cc2)C(=O)N[C@@H](Cc2cccnc2)C(=O)N2C[C@H](Oc3ccncc3)C[C@H]2C(=O)N[C@H](CCc2ccccc2)C(=O)N[C@@H](Cc2c[nH]c3ccccc23)C(=O)N[C@H]1CC1CCNCC1 [Example 24] (cyclo([3Pal][X2][d(hPhe)]W[Ala(piperidin-4-yl)]Y(Bn)))
10 | 102 | 0.126 | 1351.8 | 100 | 200 | NCCNC(=O)O[C@@H]1C[C@H]2C(=O)N[C@H](CCc3ccccc3)C(=O)N[C@H](Cc3c[nH]c4ccccc34)C(=O)N[C@@H](CN3CCNCC3)C(=O)N[C@@H](Cc3ccc(OCc4ccccc4)cc3)C(=O)N3Cc4ccccc4C[C@H]3C(=O)N2C1 [Example 25] (cyclo([Hyp]([CO-Ethylenediamine])[d(hPhe)][dW][Ala(piperazin-1-yl)]Y(Bn)[Tic]))
11 | 99.1 | 0.126 | 4067.3 | 66.6 | 501 | NCCNC(=O)O[C@@H]1C[C@H]2C(=O)N[C@@H](CCc3ccccc3)C(=O)N[C@H](Cc3c[nH]c4ccccc34)C(=O)N[C@@H](CN3CCNCC3)C(=O)N[C@@H](Cc3ccc(OCc4ccccc4)cc3)C(=O)N3Cc4ccccc4C[C@H]3C(=O)N2C1 [Example 26] (cyclo([Hyp]([CO-Ethylenediamine])[hPhe][dW][Ala(piperazin-1-yl)]Y(Bn)[Tic]))
12 | 99.4 | 2.51 | 159.6 | 90.7 | 398 | NCCNC(=O)O[C@@H]1C[C@H]2C(=O)N[C@@H](c3ccccc3)C(=O)N[C@H](Cc3c[nH]c4ccccc34)C(=O)N[C@@H](CN3CCNCC3)C(=O)N[C@@H](Cc3ccc(OCC4CCCCC4)cc3)C(=O)N[C@@H](Cc3ccccc3)C(=O)N2C1 [Example 27] (cyclo(F[Hyp]([CO-Ethylenediamine])[Phg][dW][Ala(piperazin-1-yl)]Y(Cyclohexylmethyl)))
13 | 100 | 0.0794 | 101.0 | 99.6 | 7.94 | NCCNC(=O)O[C@@H]1C[C@H]2C(=O)N[C@@H](CCc3ccccc3)C(=O)N[C@H](Cc3c[nH]c4ccccc34)C(=O)N[C@@H](CC3CCNCC3)C(=O)N[C@@H](Cc3ccc(OCc4ccccc4)cc3)C(=O)N[C@@H](Cc3ccccc3)C(=O)N2C1 [Example 28] (cyclo(F[Hyp]([CO-Ethylenediamine])[hPhe][dW][Ala(piperidin-4-yl)]Y(Bn)))
14 | 100 | 1 | 663.6 | 89.6 | 794 | NCCNC(=O)O[C@@H]1C[C@H]2C(=O)N[C@@H](CCc3ccccc3)C(=O)N[C@@H](Cc3c[nH]c4ccccc34)C(=O)N[C@@H](CC3CCNCC3)C(=O)N[C@@H](Cc3ccc(OCc4ccccc4)cc3)C(=O)N[C@@H](Cc3ccccc3)C(=O)N2C1 [Example 29] (cyclo(F[Hyp]([CO-Ethylenediamine])[hPhe]W[Ala(piperidin-4-yl)]Y(Bn)))
15 | 101 | 1 | 214.2 | 100 | 251 | NCCNC(=O)O[C@@H]1C[C@H]2C(=O)N[C@H](CCc3ccccc3)C(=O)N[C@H](Cc3c[nH]c4ccccc34)C(=O)N[C@@H](CN3CCNCC3)C(=O)N[C@@H](Cc3ccc(OCc4ccccc4)cc3)C(=O)N[C@@H](Cc3ccc(Cl)cc3)C(=O)N2C1 [Example 30] (cyclo([Hyp]([CO-Ethylenediamine])[d(hPhe)][dW][Ala(piperazin-1-yl)]Y(Bn)[Phe(4-Cl)]))
16 | 88.7 | 0.0631 | 3441.5 | 99.7 | 200 | O=C1N[C@@H](Cc2ccc(OCc3ccccc3)cc2)C(=O)N2Cc3ccccc3C[C@H]2C(=O)N2CCOC[C@H]2C(=O)N[C@@H](CCc2ccccc2)C(=O)N[C@H](Cc2c[nH]c3ccccc23)C(=O)N[C@H]1CN1CCNCC1 [Example 31] (cyclo([Tic][Morpholine(3S-CO)][hPhe][dW][Ala(piperazin-1-yl)]Y(Bn)))
17 | 99.9 | 1.26 | 66.8 | 98.8 | 100 | CN1C(=O)[C@@H](Cc2c[nH]c3ccccc23)NC(=O)[C@@H](CCc2ccccc2)NC(=O)[C@@H]2COCCN2C(=O)[C@@H]2Cc3ccccc3CN2C(=O)[C@H](Cc2ccc(OCc3ccccc3)cc2)NC(=O)[C@@H]1CC1CCNCC1 [Example 32] (cyclo([Tic][Morpholine(3S-CO)][d(hPhe)][dW][X5]Y(Bn)))
18 | 107 | 39.8 | 279.1 | 13.4 | > 10000 | NCCNC(=O)O[C@@H]1C[C@H]2C(=O)N[C@H](CCc3ccccc3)C(=O)N[C@@H](Cc3c[nH]c4ccccc34)C(=O)N[C@@H](CN3CCNCC3)C(=O)N[C@@H](Cc3ccc(OCc4ccccc4)cc3)C(=O)N[C@@H](Cc3cccnc3)C(=O)N2C1 [Example 33] (cyclo([3Pal][Hyp]([CO-Ethylenediamine])[d(hPhe)]W[Ala(piperazin-1-yl)]Y(Bn)))
